According to article PMC8956739, “A synthetic lipopeptide targeting top-priority multidrug-resistant Gram-negative pathogens” (Nature Communications, 2022):
Several values for one entry are separate records, joined by “and”; a condition that tells them apart may be missing. Identical values can stand only once. Residues, ends and D or L forms follow the SMILES beside them.

Legend:
P. aeruginosa ATCC 27853 = assay: Neutropenic mouse bloodstream infection model; assay type: in vivo; conditions: single IV dose 4 mg/kg
How it was run: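 Female Swiss mice made neutropenic with cyclophosphamide (150 mg/kg day −4, 100 mg/kg day −1), infected IV with 50 µL of 4 × 10^8 CFU/mL. Lipopeptide 4 mg/kg (free base) IV at 2 h post-inoculation, n = 3. Efficacy = Δlog10 CFU/mL blood versus saline at 4 h post-dose.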

A. baumannii AB5075 = assay: Transcriptomic analysis (RNA-Seq) of bacteria; assay type: cell-based, Acinetobacter baumannii; conditions: for logFC (Differential gene expression for all genes), Geneid ABUW_RS00005 / logFC (Differential gene expression for all genes), Geneid ABUW_RS00020 / logFC (Fold change), gene ABUW_RS00010 / logFC (Fold change), gene ABUW_RS00030 / logFC (Fold change), gene ABUW_RS00035 / logFC (Fold change), gene recF (ABUW_RS00015) / 4h_1h logFC (Differential gene expression for all genes), Geneid ABUW_RS00005 / 4h_1h logFC (Differential gene expression for all genes), Geneid ABUW_RS00010 / 4h_1h logFC (Differential gene expression for all genes), Geneid ABUW_RS00015 / 4h_1h logFC (Differential gene expression for all genes), Geneid ABUW_RS00020: RNA-Seq A. baumannii AB5075; for log2FC, gene ABUW_RS01945 (acyl-CoA thioesterase II) / log2FC, gene ABUW_RS02545 (acyl-CoA thioesterase) / log2FC, gene ABUW_RS05045 (acyl-CoA thioesterase) / log2FC, gene ABUW_RS17575 (acyl-CoA thioesterase): pathway Fatty Acid and Lipid Degradation; for 4h_1h logFC (Differential gene expression for all genes), Geneid ABUW_RS00005 / 4h_1h logFC (Differential gene expression for all genes), Geneid ABUW_RS00010 / 4h_1h logFC (Differential gene expression for all genes), Geneid ABUW_RS00015 / 4h_1h logFC (Differential gene expression for all genes), Geneid ABUW_RS00020: 4h vs 1h
Description: Mid-log phase A. baumannii AB5075 (~10^8 CFU/mL) in CaMHB was treated with colistin (2 and 8 μg/mL), F287, F319 or F365 (equimolar concentration to colistin) for 1 and 4 h. Total RNA was extracted using TRIzol Reagent (Invitrogen, USA) and RNeasy Mini Kit (Qiagen, Germany). Quality check of RNA samples was conducted with NanoDrop (Thermo Fisher Scientific, USA) and Agilent 2100 Bioanalyzer (Agilent Technologies, USA) for sequencing (150 bp paired-end) at Genewiz (Shanghai, China). Raw reads were aligned to A. baumannii AB5075 genome (GCF_000963815, https://www.ncbi.nlm.nih.gov/assembly/GCF_000963815.1/) using subread-aligner (subread 2.0.1) and summarized by featureCounts (subread 2.0.1). Principal component analysis (PCA) was conducted with mixOmics 6.14.1 in R. Differentially expressed genes were determined using limma 3.46.0 with a combination of fold change ≥ 2 and false discovery rate (FDR, by Benjamini–Hochberg algorithm) adjusted P-value ≤ 0.05 (n = 3). Enrichment analysis of gene differential expression in AB5075 was conducted using BioCyc (A. baumannii AB5075, version 25.5). UpSetR 1.4.0, ComplexHeatmap 2.6.2 and circlize 0.4.13 were used for data visualization. Raw data were deposited in Short Reads Archive (SRA) database under accession numbers SRR15235669-SRR15235725.

## CCCCCCCC(=O)N[C@@H](CCN)C(=O)N[C@H](C(=O)N[C@@H](CCN)C(=O)N[C@H]1CCNC(=O)[C@H]([C@@H](C)O)NC(=O)[C@H](CCN)NC(=O)[C@H](CCN)NC(=O)[C@H](CC)NC(=O)[C@@H](CC(C)C)NC(=O)[C@H](CCN)NC1=O)[C@@H](C)O [Lipopeptide F319] (HELM PEPTIDE1{[CCCCCCCC(=O)[*:2]].[Dab].T.[Dab].[Dab].[Dab].[dL].[Abu].[Dab].[Dab].T}$PEPTIDE1,PEPTIDE1,5:R3-11:R2$$$V2.0)
P. aeruginosa ATCC 27853; 4 h
  Log10 CFU/mL blood at 4 h, Mean: 4.01 Log10 CFU/mL blood
P. aeruginosa ATCC 27853; 4 h, treated minus control, mean of replicates, 4 mg/kg
  Δlog10 CFU/mL blood (mean): −3.44 log10 CFU/mL blood
P. aeruginosa ATCC 27853; 4 h, 4 mg/kg
  Log10 CFU/mL blood at 4 h, single mouse: 3.87 Log10 CFU/mL blood and 4.06 Log10 CFU/mL blood and 4.10 Log10 CFU/mL blood
P. aeruginosa ATCC 27853; treated mouse minus mean of vehicle mice, 4 mg/kg
  Delta Log10 CFU/mL blood at 4 h, single mouse: -3.57 Log10 CFU/mL blood and -3.38 Log10 CFU/mL blood and -3.35 Log10 CFU/mL blood
A. baumannii AB5075; H vs Cont, 1h
  logFC (Differential gene expression for all genes), Geneid ABUW_RS00005: -0.09763
  logFC (Differential gene expression for all genes), Geneid ABUW_RS00020: 0.4439
  logFC (Fold change), gene ABUW_RS00010: 0.5437
  logFC (Fold change), gene ABUW_RS00030: -0.5665
  logFC (Fold change), gene ABUW_RS00035: 1.083
  logFC (Fold change), gene recF (ABUW_RS00015): -0.2736
  log2FC, gene ABUW_RS01945 (acyl-CoA thioesterase II): 0.4348
  log2FC, gene ABUW_RS02545 (acyl-CoA thioesterase): 1.57
  log2FC, gene ABUW_RS05045 (acyl-CoA thioesterase): 0.3422
  log2FC, gene ABUW_RS17575 (acyl-CoA thioesterase): -0.5597
A. baumannii AB5075; H vs Cont, 4h
  logFC (Differential gene expression for all genes), Geneid ABUW_RS00005: -0.2808
  logFC (Differential gene expression for all genes), Geneid ABUW_RS00020: -0.01751
  logFC (Fold change), gene ABUW_RS00010: 1.173
  logFC (Fold change), gene ABUW_RS00030: -1.885
  logFC (Fold change), gene ABUW_RS00035: 0.8498
  logFC (Fold change), gene recF (ABUW_RS00015): -1.612
  log2FC, gene ABUW_RS01945 (acyl-CoA thioesterase II): -0.7411
  log2FC, gene ABUW_RS02545 (acyl-CoA thioesterase): 1.194
  log2FC, gene ABUW_RS05045 (acyl-CoA thioesterase): 0.6506
  log2FC, gene ABUW_RS17575 (acyl-CoA thioesterase): -1.957
A. baumannii AB5075; H
  4h_1h logFC (Differential gene expression for all genes), Geneid ABUW_RS00005: -0.8466
  4h_1h logFC (Differential gene expression for all genes), Geneid ABUW_RS00010: 0.6539
  4h_1h logFC (Differential gene expression for all genes), Geneid ABUW_RS00015: -1.958
  4h_1h logFC (Differential gene expression for all genes), Geneid ABUW_RS00020: 0.139
A. baumannii AB5075; L vs Cont, 1h
  logFC (Differential gene expression for all genes), Geneid ABUW_RS00005: 0.2742
  logFC (Differential gene expression for all genes), Geneid ABUW_RS00020: 0.3388
  logFC (Fold change), gene ABUW_RS00010: 0.1491
  logFC (Fold change), gene ABUW_RS00030: 0.2512
  logFC (Fold change), gene ABUW_RS00035: -0.1567
  logFC (Fold change), gene recF (ABUW_RS00015): 0.1396
  log2FC, gene ABUW_RS01945 (acyl-CoA thioesterase II): 0.4255
  log2FC, gene ABUW_RS02545 (acyl-CoA thioesterase): 0.2059
  log2FC, gene ABUW_RS05045 (acyl-CoA thioesterase): -0.2352
  log2FC, gene ABUW_RS17575 (acyl-CoA thioesterase): 0.153
A. baumannii AB5075; L vs Cont, 4h
  logFC (Differential gene expression for all genes), Geneid ABUW_RS00005: 0.0635
  logFC (Differential gene expression for all genes), Geneid ABUW_RS00020: -0.109
  logFC (Fold change), gene ABUW_RS00010: 0.1358
  logFC (Fold change), gene ABUW_RS00030: 0.06806
  logFC (Fold change), gene ABUW_RS00035: 0.1484
  logFC (Fold change), gene recF (ABUW_RS00015): -0.1014
  log2FC, gene ABUW_RS01945 (acyl-CoA thioesterase II): 0.08809
  log2FC, gene ABUW_RS02545 (acyl-CoA thioesterase): -0.3183
  log2FC, gene ABUW_RS05045 (acyl-CoA thioesterase): 0.2863
  log2FC, gene ABUW_RS17575 (acyl-CoA thioesterase): 0.3089
A. baumannii AB5075; L
  4h_1h logFC (Differential gene expression for all genes), Geneid ABUW_RS00005: -0.004361
  4h_1h logFC (Differential gene expression for all genes), Geneid ABUW_RS00010: -0.867
  4h_1h logFC (Differential gene expression for all genes), Geneid ABUW_RS00015: -0.3076
  4h_1h logFC (Differential gene expression for all genes), Geneid ABUW_RS00020: -0.09503
